The results in this text go back to patent US11208412B2 (DAEGU-GYEONGBUK MEDICAL INNOVATION FOUNDATION, priority 2017, dated 2021).

T1 sequence (Q5S007 whole entry): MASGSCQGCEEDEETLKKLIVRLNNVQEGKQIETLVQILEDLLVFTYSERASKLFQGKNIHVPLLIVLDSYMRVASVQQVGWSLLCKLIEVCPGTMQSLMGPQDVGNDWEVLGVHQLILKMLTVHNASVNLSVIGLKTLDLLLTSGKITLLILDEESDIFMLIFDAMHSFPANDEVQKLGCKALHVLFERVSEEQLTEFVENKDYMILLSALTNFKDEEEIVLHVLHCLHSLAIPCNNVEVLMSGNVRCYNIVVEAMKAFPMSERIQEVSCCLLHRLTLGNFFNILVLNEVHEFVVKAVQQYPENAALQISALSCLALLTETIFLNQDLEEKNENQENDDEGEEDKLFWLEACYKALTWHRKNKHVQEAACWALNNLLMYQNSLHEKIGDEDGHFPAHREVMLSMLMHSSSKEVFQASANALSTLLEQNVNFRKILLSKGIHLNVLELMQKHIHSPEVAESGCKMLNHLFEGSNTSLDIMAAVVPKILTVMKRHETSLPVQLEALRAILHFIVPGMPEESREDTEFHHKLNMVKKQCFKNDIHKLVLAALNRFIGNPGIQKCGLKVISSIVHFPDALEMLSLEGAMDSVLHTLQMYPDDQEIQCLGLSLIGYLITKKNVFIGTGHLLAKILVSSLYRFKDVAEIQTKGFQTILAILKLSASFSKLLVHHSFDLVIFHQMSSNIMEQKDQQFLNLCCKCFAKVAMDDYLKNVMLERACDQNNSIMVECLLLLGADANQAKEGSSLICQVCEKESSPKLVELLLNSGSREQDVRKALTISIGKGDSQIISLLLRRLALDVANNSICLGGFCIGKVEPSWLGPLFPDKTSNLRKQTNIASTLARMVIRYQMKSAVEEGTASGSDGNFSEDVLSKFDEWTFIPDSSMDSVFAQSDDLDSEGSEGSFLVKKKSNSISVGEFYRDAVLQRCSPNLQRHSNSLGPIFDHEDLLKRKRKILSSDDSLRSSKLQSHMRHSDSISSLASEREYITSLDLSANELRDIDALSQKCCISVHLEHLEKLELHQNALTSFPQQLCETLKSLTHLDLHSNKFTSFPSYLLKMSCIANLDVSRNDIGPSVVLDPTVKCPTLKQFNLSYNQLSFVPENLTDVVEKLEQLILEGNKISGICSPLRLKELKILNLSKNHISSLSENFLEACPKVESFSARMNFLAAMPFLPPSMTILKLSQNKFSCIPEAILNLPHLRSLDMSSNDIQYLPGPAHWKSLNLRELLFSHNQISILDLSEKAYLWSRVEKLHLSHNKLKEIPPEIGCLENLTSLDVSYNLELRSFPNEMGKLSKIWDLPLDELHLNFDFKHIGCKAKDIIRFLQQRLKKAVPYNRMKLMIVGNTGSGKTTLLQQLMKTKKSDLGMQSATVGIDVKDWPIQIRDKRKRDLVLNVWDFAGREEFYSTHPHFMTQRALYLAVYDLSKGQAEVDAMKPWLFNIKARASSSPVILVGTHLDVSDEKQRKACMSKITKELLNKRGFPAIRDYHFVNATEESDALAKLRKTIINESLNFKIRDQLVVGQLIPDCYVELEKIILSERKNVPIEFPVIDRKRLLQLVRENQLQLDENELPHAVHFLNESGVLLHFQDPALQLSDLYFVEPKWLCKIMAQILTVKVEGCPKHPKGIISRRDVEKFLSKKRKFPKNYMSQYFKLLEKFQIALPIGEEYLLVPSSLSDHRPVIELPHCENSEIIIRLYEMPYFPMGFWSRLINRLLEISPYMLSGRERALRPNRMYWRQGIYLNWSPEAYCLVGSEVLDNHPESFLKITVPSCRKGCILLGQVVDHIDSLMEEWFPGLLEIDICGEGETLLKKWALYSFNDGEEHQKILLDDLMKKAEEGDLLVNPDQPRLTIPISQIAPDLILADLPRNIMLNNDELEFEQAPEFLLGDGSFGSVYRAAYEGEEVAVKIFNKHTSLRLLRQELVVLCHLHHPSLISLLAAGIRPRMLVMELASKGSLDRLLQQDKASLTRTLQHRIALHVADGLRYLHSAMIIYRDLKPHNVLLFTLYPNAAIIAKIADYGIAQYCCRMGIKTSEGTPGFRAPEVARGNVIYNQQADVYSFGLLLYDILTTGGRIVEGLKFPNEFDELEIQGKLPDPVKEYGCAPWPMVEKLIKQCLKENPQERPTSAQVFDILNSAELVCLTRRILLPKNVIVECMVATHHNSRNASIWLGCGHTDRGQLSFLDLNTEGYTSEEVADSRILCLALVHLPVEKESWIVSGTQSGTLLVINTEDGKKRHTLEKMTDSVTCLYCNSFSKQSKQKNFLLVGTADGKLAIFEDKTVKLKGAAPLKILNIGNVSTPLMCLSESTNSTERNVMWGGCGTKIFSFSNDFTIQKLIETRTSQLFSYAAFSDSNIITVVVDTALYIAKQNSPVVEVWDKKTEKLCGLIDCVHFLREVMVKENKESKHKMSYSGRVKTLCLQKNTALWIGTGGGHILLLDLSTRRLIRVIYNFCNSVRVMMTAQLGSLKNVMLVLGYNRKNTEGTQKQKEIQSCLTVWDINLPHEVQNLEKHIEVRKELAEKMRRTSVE

The experiment has as its target T1, recombinant LRRK2 kinase (Homo sapiens, UniProt Q5S007).
T1 construct: purchased Signal Chem, Richmond, BC, Canada
Kind of experiment: LRRK2 kinase inhibition (Kinase-Glo luminescence). It counts as biochemical. The settings on record: IC50 grade; 25 μmol/L ATP, LRRKtide, 30° C. 2 hours; read-out: Enzyme activity LRRK2. As to the method:
Upon completion of the reaction, an equal amount of Kinase-Glo (Promega, Madison, Wis.) solution was added thereto, followed by reaction for 40 minutes. A detection solution was added thereto, followed by further reaction at room temperature for 30 minutes. Then, IC50 of kinase was calculated by measuring the amount of luciferase using a microplate ELISA reader (Bio-Tek).
Background: Kinase-Glo reads ATP consumption through a luciferase reaction.
As to `COc1cc(C(=O)N2CCO[C@H](C)C2)ccc1Nc1nc(OC2(C)CC2)c2c(C#N)c[nH]c2n1` [Example 98, (R)-2-((2-methoxy-4-(2-methylmorpholine-4-carbonyl)phenyl)amino)-4-(1-methylcyclopropoxy)-7H-pyrrolo[2,3d]carbonitrile], the IC50 was 10 to 100 nM.

Consider `CCNc1nc(Nc2ccc(C(=O)N3CCN(C)C[C@H]3C)cc2OC)nc2[nH]cc(C#N)c12` [Example 76, (R)-2-((4-(2,4-dimethylpiperazine-1-carbonyl)-2-methoxyphenyl)amino)-4-(ethylamino)-7H-pyrrolo[2,3-d]pyrimidine-5-carbonitrile], for which the IC50 is under 10 nM.

Take `CNc1nc(Nc2cn(C)nc2C)nc2[nH]cc(C#N)c12` [Example 28, 6-((1,3-dimethyl-1H-pyrazole-4-yl)amino)-4-(methylamino)-1H-pyrrolo[2,3-b]pyrimidine-3-carbonitrile]: the IC50 lay in the range of 10 to 100 nM.

On to `CCNc1nc(Nc2cc(F)c(C(=O)N3CCOCC3)cc2OC)nc2[nH]cc(C#N)c12` [Example 6, 4-(ethylamino)-2-((5-fluoro-2-methoxy-4-(morpholine-4-carbonyl)phenyl)amino)-7H-pyrrolo[2,3-d]pyrimidine-5-carbonitrile], for which the IC50 was under 10 nM.

`CNc1nc(Nc2ccc(C(=O)N3CCC(N4CCOCC4)CC3)cc2OC)nc2[nH]cc(C#N)c12` [Example 9, 2-((2-methoxy-4-(4-morpholinylpiperidine-1-carbonyl)phenyl)amino)-4-(methylamino)-7H-pyrrolo[2,3-d]pyrimidine-5-carbonitrile]: the IC50 is under 10 nM.

On to `CNc1nc(Nc2cnn([C@H]3CCN(C4COC4)C[C@@H]3F)c2Cl)nc2[nH]cc(C#N)c12` [Example 50, 2-((5-chloro-1-((3S,4S)-3-fluoro-1-(oxetane-3-yl)piperidine-4-yl)-1H-pyrazole-4-yl)amino)-4-(methylamino)-7H-pyrrolo[2,3-d]pyrimidine-5-carbonitrile], for which the IC50 is under 10 nM.

For the molecule `COc1cc(C(=O)N2CCOCC2)ccc1Nc1nc(NC2CC2)c2c(C(F)(F)F)c[nH]c2n1` [Example 118, (4-((4-(cyclopropylamino)-5-(trifluoromethyl)-7H-pyrrolo[2,3-d]pyrimidine-2-yl)amino)-3-methoxyphenyl)(morpholino)methanone], the IC50 was under 10 nM.

As for `COc1cc(C(=O)N2CCOCC2)c(F)cc1Nc1nc(O[C@H]2CCOC2)c2c(C#N)c[nH]c2n1` [Example 92, (S)-2-((5-fluoro-2-methoxy-4-(morpholine-4-carbonyl)phenyl)amino)-4-((tetrahydrofuran-3-yl)oxy)-7H-pyrrolo[2,3 d]pyrimidine-5-carbonitrile], the IC50 was under 10 nM.

Regarding `COc1cc(C(=O)NC2CCN(C(C)C)CC2)c(F)cc1Nc1nc(NC2(C)CC2)c2c(C#N)c[nH]c2n1` [Example 82, 4-((5-cyano-4-((1-methylcyclopropyl)amino)-7H-pyrrolo[2,3-d]pyrimidine-2-yl)amino)-2-fluoro-N-(1-isopropylpiperidine-4-yl)-5-methoxybenzamide], the IC50 was 10 to 100 nM.

Consider `COc1cc(C(=O)N2CCC(N3CCOCC3)CC2)ccc1Nc1nc(OC2CCOC2)c2c(C#N)c[nH]c2n1` (stereo not shown) [Example 87, 2-((2-methoxy-4-(4-morpholinopiperidine-1-carbonyl)phenyl)amino)-4-((tetrahydrofuran-3-yl)oxy)-7H-pyrrolo[2,3-d]pyrimidine-5-carbonitrile], for which the IC50 was under 10 nM.

With `CNc1nc(Nc2cnn(C(C)(C)C#N)c2Cl)nc2[nH]cc(C#N)c12` [Example 73, 2-((5-chloro-1-(2-cyanopropane-2-yl)-1H-pyrazole-4-yl)amino)-4-(methylamino)-7H-pyrrolo[2,3-d]pyrimidine-5-carbonitrile], the IC50 was under 10 nM.

In the case of `COc1cc(C(=O)N2CCO[C@@H](C)C2)ccc1Nc1nc(NC2(C)CC2)c2c(C#N)c[nH]c2n1` [Example 43, (S)-2-((2-methoxy-4-(2-methylmorpholine-4-carbonyl)phenyl)amino)-4-((1-methylcyclopropyl)amino)-7H-pyrrolo[2,3-d]pyrimidine-5-carbonitrile], the IC50 is under 10 nM.

As to `CCNc1nc(Nc2ccc(C(=O)N3CCOCC3)cc2OC)nc2[nH]cc(C(F)(F)F)c12` [Example 105, (4-((4-(ethylamino)-5-(trifluoromethyl)-7H-pyrrolo[2,3-d]pyrimidine-2-yl)amino)-3-methoxyphenyl)(morpholino)methanone], the IC50 was 10 to 100 nM.

Consider `CCNc1nc(Nc2ccn(C)n2)nc2[nH]cc(C#N)c12` [Example 5, 4-(ethylamino)-2-((1-methyl-1H-pyrazole-3-yl)amino)-7H-pyrrolo[2,3-d]pyrimidine-5-carbonitrile], for which the IC50 is under 10 nM.

`Cc1c(Nc2nc(NC3(C)CC3)c3c(C#N)c[nH]c3n2)cnn1C` [Example 41, 2-((1,5-dimethyl-1H-pyrazole-4-yl)amino)-4-((1-methylcyclopropyl)amino)-7H-pyrrolo[2,3-d]pyrimidine-5-carbonitrile]: the IC50 was under 10 nM.

Regarding `CNc1nc(Nc2cn(C(C)(C)C#N)nc2C)nc2[nH]cc(C#N)c12` [Example 47, 2-((1-(2-cyanopropane-2-yl)-3-methyl-1H-pyrazole-4-yl)amino)-4-(methylamino)-7H-pyrrolo[2,3-d]pyrimidine-5-carbonitrile], the IC50 was under 10 nM.

For the molecule `CCNc1nc(Nc2cc(F)c(C(=O)N3CCN(C)C[C@H]3C)cc2OC)nc2[nH]cc(C#N)c12` [Example 79, (R)-2-((4-(2,4-dimethylpiperazine-1-carbonyl)-5-fluoro-2-methoxyphenyl)amino)-4-(ethylamino)-7H-pyrrolo[2,3-d]pyrimidine-5-carbonitrile], the IC50 was under 10 nM.

Regarding `CNc1nc(Nc2cn(C(C)(C)C(N)=O)nc2C)nc2[nH]cc(C#N)c12` [Example 46, 2-(4-((5-cyano-4-(methylamino)-7H-pyrrolo[2,3-d]pyrimidine-2-yl)amino)-3-methyl-1H-pyrazole-1-yl)-2-methylpropaneamide], the IC50 is under 10 nM.

As to `Cc1c(Nc2nc(NC3(C)CC3)c3c(C#N)c[nH]c3n2)cnn1C(C)C` [Example 38, 2-((1-isopropyl-5-methyl-1H-pyrazole-4-yl)amino)-4-((1-methylcyclopropyl)amino)-7H-pyrrolo[2,3-d]pyrimidine-5-carbonitrile], the IC50 was under 10 nM.

As to `CNc1nc(Nc2cnn(CCOC)c2Cl)nc2[nH]cc(C#N)c12` [Example 59, 2-((5-chloro-1-(2-methoxyethyl)-1H-pyrazole-4-yl)amino)-4-(methylamino)-7H-pyrrolo[2,3-d]pyrimidine-5-carbonitrile], the IC50 was under 10 nM.

As to `CCNc1nc(Nc2ccc(C(=O)N3CCOC(C)C3)cc2OC)nc2[nH]cc(C(F)(F)F)c12` (stereo in doubt) [Example 111, (S)-(4-((4-(ethylamino)-5-(trifluoromethyl)-7H-pyrrolo[2,3-d]pyrimidine-2-yl)amino)-3-methoxyphenyl)(2-methylmorpholino)methanone], the IC50 was in the range of 10 to 100 nM.

Regarding `CNc1nc(Nc2ccc(C(=O)NC3CCN(C)CC3)cc2OC)nc2[nH]cc(C#N)c12` [Example 55, 4-((5-cyano-4-(methylamino)-7H-pyrrolo[2,3-d]pyrimidine-2-yl)amino)-3-methoxy-N-(1-methylpiperidine-4-yl)benzamide], the IC50 is under 10 nM.
